According to US9809583B2 (priority 2014, dated 2017):
Where a name gives a salt, the structure may show the parent alone. Read-outs that look alike come from different tables or passages of the source.

Assays:
castrated male rats = test: Efficacy test in castrated male rat (Hershberger assay); assay type: in vivo, SD (Sprague-Dawley) rat; conditions: castrated male SD rats, oral once a day for 14 days
Procedure: SD (Sprague-Dawley) male rats (7-week-old) were castrated under ketamine/xylazine anesthesia, and 5 rats were randomly assigned to one group. From the next day, the agonists were dissolved in a vehicle solution and orally administered at a dose of 5 ml per kg once a day for 14 days. As the vehicle, DMSO, Co-solvent, and DW were prepared at a ratio of 4:80:16 (v/v/v), and Co-solvent was prepared by mixing PEG400, Ethanol, and Tween 80 at a ratio of 85:10:5 (v/v/v). 24 hours after last administration of the drug, their body weight was measured and killed. Thereafter, levator ani muscle, ventral prostate, and seminal vesicles were removed and weighed (Hershberger assay). The following Table 6 represents the result of the efficacy test in castrated male rats.

androgen receptor (hAR) = androgen receptor (hAR) (Homo sapiens (Human), UniProt P10275); test: Test of transcriptional activity (hAR / ARE-Luc dual-luciferase assay in CHO cells); assay type: cell-based; conditions: CHO cells with hAR and ARE-Luc, 24 hours, 10 nM DHT = 100%
Chain of androgen receptor (hAR) (P10275 whole entry): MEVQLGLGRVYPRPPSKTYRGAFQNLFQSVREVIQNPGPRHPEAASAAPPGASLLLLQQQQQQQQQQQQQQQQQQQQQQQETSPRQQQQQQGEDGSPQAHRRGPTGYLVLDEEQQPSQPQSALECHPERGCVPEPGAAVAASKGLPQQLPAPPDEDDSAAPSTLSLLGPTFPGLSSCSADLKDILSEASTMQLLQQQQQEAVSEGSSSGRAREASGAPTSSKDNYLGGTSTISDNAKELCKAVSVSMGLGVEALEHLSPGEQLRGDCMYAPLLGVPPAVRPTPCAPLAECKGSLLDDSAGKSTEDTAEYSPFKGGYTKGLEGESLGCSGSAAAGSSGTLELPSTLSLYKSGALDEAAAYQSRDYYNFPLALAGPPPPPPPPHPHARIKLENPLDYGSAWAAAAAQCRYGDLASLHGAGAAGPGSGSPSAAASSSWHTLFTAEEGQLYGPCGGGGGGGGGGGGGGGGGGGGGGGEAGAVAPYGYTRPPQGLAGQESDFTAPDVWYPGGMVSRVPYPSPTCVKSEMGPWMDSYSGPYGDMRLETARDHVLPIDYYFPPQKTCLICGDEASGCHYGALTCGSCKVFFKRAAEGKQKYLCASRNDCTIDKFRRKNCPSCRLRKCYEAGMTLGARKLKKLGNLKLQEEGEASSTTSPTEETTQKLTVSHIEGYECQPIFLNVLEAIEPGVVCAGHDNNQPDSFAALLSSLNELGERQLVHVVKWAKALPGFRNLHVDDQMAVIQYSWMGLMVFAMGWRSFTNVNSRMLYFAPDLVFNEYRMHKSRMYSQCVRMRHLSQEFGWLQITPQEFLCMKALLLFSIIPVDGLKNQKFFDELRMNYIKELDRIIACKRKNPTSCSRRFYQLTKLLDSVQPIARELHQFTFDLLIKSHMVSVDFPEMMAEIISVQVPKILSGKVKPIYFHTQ
How it was run: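 Compound at 0.1˜10,000 nM applied for 24 h to CHO cells carrying transfected human AR and an ARE-driven luciferase reporter. Cells were grown 24 h before transfection; readout was dual-luciferase luminescence.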

[1] = read-out: EC50 [nM] (mean ± SE)

## COC(=O)N1CCN(C(=O)[C@@H]2CN(c3ccc(C#N)c(C(F)(F)F)c3)[C@@H](C(F)(F)F)O2)CC1 [Example 173, methyl 4-((2R,5S)-3-(4-cyano-3-(trifluoromethyl)phenyl)-2-(trifluoromethyl)oxazolidine-5-carbonyl)piperazine-1-carboxylate]
Castrated male rats; 0.03 mg/kg
  levator ani muscle weight % relative to intact control group: 9.8 ± 0.6%
  seminal vesicles weight % relative to intact control group: 1.3 ± 0.4%
  ventral prostate weight % relative to intact control group: 0.6 ± 0.1%
Castrated male rats; 0.1 mg/kg
  levator ani muscle weight % relative to intact control group: 15.0 ± 1.2%
  seminal vesicles weight % relative to intact control group: 1.3 ± 0.3%
  ventral prostate weight % relative to intact control group: 3.2 ± 0.6%
Castrated male rats; 0.3 mg/kg
  levator ani muscle weight % relative to intact control group: 37.5 ± 2.3%
  seminal vesicles weight % relative to intact control group: 2.9 ± 0.3%
  ventral prostate weight % relative to intact control group: 3.5 ± 0.5%
Castrated male rats; 1 mg/kg
  levator ani muscle weight % relative to intact control group: 61.1 ± 9.9%
  seminal vesicles weight % relative to intact control group: 5.9 ± 2.1%
  ventral prostate weight % relative to intact control group: 9.1 ± 2.1%
Castrated male rats; 3 mg/kg
  levator ani muscle weight % relative to intact control group: 69.9 ± 3.6%
  seminal vesicles weight % relative to intact control group: 20.3 ± 4.8%
  ventral prostate weight % relative to intact control group: 12.4 ± 3.5%
Castrated male rats; 10 mg/kg
  levator ani muscle weight % relative to intact control group: 93.0 ± 11.0%
  seminal vesicles weight % relative to intact control group: 34.5 ± 4.0%
  ventral prostate weight % relative to intact control group: 24.4 ± 2.0%
Castrated male rats; 30 mg/kg
  levator ani muscle weight % relative to intact control group: 91.4 ± 8.2%
  seminal vesicles weight % relative to intact control group: 45.5 ± 8.6%
  ventral prostate weight % relative to intact control group: 33.2 ± 3.3%
Castrated male rats; 100 mg/kg
  levator ani muscle weight % relative to intact control group: 99.5 ± 13.0%
  seminal vesicles weight % relative to intact control group: 52.8 ± 10.6%
  ventral prostate weight % relative to intact control group: 48.6 ± 9.3%
Androgen receptor (hAR); EC50 [nM] (mean ± SE)
  EC50: 5.34 nM

## N#Cc1ccc(OC[C@@H]2CN(c3ccc(C#N)c(C(F)(F)F)c3)[C@@H](C(F)(F)F)O2)cn1 [Example 44, 5-(((2R,5S)-3-(4-cyano-3-(trifluoromethyl)phenyl)-2-(trifluoromethyl)oxazolidin-5-yl)methoxy)picolinonitrile]
Castrated male rats; 0.1 mg/kg
  levator ani muscle weight % relative to intact control group: 43.3 ± 8.1%
  seminal vesicles weight % relative to intact control group: 6.7 ± 1.5%
  ventral prostate weight % relative to intact control group: 7.0 ± 3.2%
Castrated male rats; 0.3 mg/kg
  levator ani muscle weight % relative to intact control group: 66.6 ± 8.7%
  seminal vesicles weight % relative to intact control group: 16.9 ± 6.7%
  ventral prostate weight % relative to intact control group: 13.6 ± 5.0%
Castrated male rats; 1 mg/kg
  levator ani muscle weight % relative to intact control group: 82.4 ± 10.2%
  seminal vesicles weight % relative to intact control group: 37.9 ± 4.3%
  ventral prostate weight % relative to intact control group: 26.1 ± 5.2%
Castrated male rats; 3 mg/kg
  levator ani muscle weight % relative to intact control group: 92.1 ± 6.5%
  seminal vesicles weight % relative to intact control group: 54.5 ± 11.9%
  ventral prostate weight % relative to intact control group: 38.7 ± 8.3%
Castrated male rats; 10 mg/kg
  levator ani muscle weight % relative to intact control group: 87.0 ± 7.5%
  seminal vesicles weight % relative to intact control group: 46.1 ± 10.8%
  ventral prostate weight % relative to intact control group: 28.2 ± 5.5%
Castrated male rats; 30 mg/kg
  levator ani muscle weight % relative to intact control group: 74.2 ± 2.8%
  seminal vesicles weight % relative to intact control group: 49.6 ± 6.0%
  ventral prostate weight % relative to intact control group: 34.7 ± 4.1%
Castrated male rats; 100 mg/kg
  levator ani muscle weight % relative to intact control group: 90.5 ± 6.5%
  seminal vesicles weight % relative to intact control group: 72.4 ± 14.6%
  ventral prostate weight % relative to intact control group: 39.9 ± 4.7%
Androgen receptor (hAR); EC50 [nM] (mean ± SE)
  EC50: 2.6 ± 0.4 nM

## (2R,5S)-3-(3-chloro-4-cyanophenyl)-N-(2-chloropyridin-4-yl)-2-(trifluoromethyl)oxazolidine-5-carboxamide [Example 136]
Castrated male rats; 0.03 mg/kg
  levator ani muscle weight % relative to intact control group: 3.7 ± 0.8%
  seminal vesicles weight % relative to intact control group: −0.1 ± 0.0%
  ventral prostate weight % relative to intact control group: 1.7 ± 0.5%
Castrated male rats; 0.1 mg/kg
  levator ani muscle weight % relative to intact control group: 4.5 ± 0.9%
  seminal vesicles weight % relative to intact control group: −0.4 ± 0.1%
  ventral prostate weight % relative to intact control group: −0.6 ± 0.3%
Castrated male rats; 0.3 mg/kg
  levator ani muscle weight % relative to intact control group: 10.0 ± 0.8%
  seminal vesicles weight % relative to intact control group: 0.8 ± 0.1%
  ventral prostate weight % relative to intact control group: 1.2 ± 0.3%
Castrated male rats; 1 mg/kg
  levator ani muscle weight % relative to intact control group: 29.1 ± 3.3%
  seminal vesicles weight % relative to intact control group: 0.9 ± 0.2%
  ventral prostate weight % relative to intact control group: 2.6 ± 0.4%
Castrated male rats; 3 mg/kg
  levator ani muscle weight % relative to intact control group: 36.6 ± 3.4%
  seminal vesicles weight % relative to intact control group: 2.4 ± 0.7%
  ventral prostate weight % relative to intact control group: 4.1 ± 0.9%
Castrated male rats; 10 mg/kg
  levator ani muscle weight % relative to intact control group: 61.8 ± 3.1%
  seminal vesicles weight % relative to intact control group: 11.0 ± 3.6%
  ventral prostate weight % relative to intact control group: 10.5 ± 3.7%
Castrated male rats; 30 mg/kg
  levator ani muscle weight % relative to intact control group: 81.4 ± 10.9%
  seminal vesicles weight % relative to intact control group: 35.8 ± 14.4%
  ventral prostate weight % relative to intact control group: 25.4 ± 7.8%
Castrated male rats; 100 mg/kg
  levator ani muscle weight % relative to intact control group: 98.5 ± 7.7%
  seminal vesicles weight % relative to intact control group: 57.8 ± 17.9%
  ventral prostate weight % relative to intact control group: 42.1 ± 7.5%
Androgen receptor (hAR); [1]
  EC50: 5.07 nM

## N#Cc1ccc(OC[C@@H]2CN(c3ccc(C#N)c(C(F)(F)F)c3)[C@H](C(F)(F)F)O2)cn1 [Example 45, 5-(((2S,5S)-3-(4-cyano-3-(trifluoromethyl)phenyl)-2-(trifluoromethyl)oxazolidin-5-yl)methoxy)picolinonitrile]
Androgen receptor (hAR); EC50 [nM] (mean ± SE)
  EC50: 44.1 nM

## N#Cc1ccc(N2C[C@@H](C(=O)N3CCC(N)CC3)O[C@@H]2C(F)(F)F)cc1C(F)(F)F [Example 175, 4-((2R,5S)-5-(4-aminopiperidine-1-carbonyl)-2-(trifluoromethyl)oxazolidin-3-yl)-2-(trifluoromethyl)benzonitrile hydrochloride]
Androgen receptor (hAR); EC50 [nM] (mean ± SE)
  EC50: 85.2 nM

## N#Cc1ccc(NC(=O)[C@@H]2CN(c3ccc(C#N)c(C(F)(F)F)c3)[C@@H](C(F)(F)F)O2)cn1 [Example 108, (2R,5S)-3-(4-cyano-3-(trifluoromethyl)phenyl)-N-(6-cyanopyridin-3-yl)-2-(trifluoromethyl)oxazolidine-5-carboxamide]
Androgen receptor (hAR); EC50 [nM] (mean ± SE)
  EC50: 17 nM

## N#Cc1ccc(N2C[C@@H](C(=O)Nc3ccc(F)c(F)c3)O[C@@H]2C(F)(F)F)cc1C(F)(F)F [Example 140, (2R,5S)-3-(4-cyano-3-(trifluoromethyl)phenyl)-N-(3,4-difluorophenyl)-2-(trifluoromethyl)oxazolidine-5-carboxamide]
Androgen receptor (hAR); EC50 [nM] (mean ± SE)
  EC50: 14.7 nM

## N#Cc1ccc(N2C[C@@H](C(=O)Nc3ccc(NC(N)=O)cc3)O[C@@H]2C(F)(F)F)cc1C(F)(F)F [Example 161, (2R,5S)-3-(4-cyano-3-(trifluoromethyl)phenyl)-2-(trifluoromethyl)-N-(4-ureidophenyl)oxazolidine-5-carboxamide]
Androgen receptor (hAR); EC50 [nM] (mean ± SE)
  EC50: 240 nM

## N#Cc1ccc(N2C[C@@H](COc3ccncc3)O[C@@H]2C(F)(F)F)cc1C(F)(F)F [Example 59, 4-((2R,5S)-5-((pyridin-4-yloxy)methyl)-2-(trifluoromethyl)oxazolidin-3-yl)-2-(trifluoromethyl)benzonitrile]
Androgen receptor (hAR); EC50 [nM] (mean ± SE)
  EC50: 3.25 nM

## CC(C)C(=O)Nc1ccc(NC(=O)[C@@H]2CN(c3ccc(C#N)c(C(F)(F)F)c3)[C@@H](C(F)(F)F)O2)cc1 [Example 159, (2R,5S)-3-(4-cyano-3-(trifluoromethyl)phenyl)-N-(4-isobutylamidophenyl)-2-(trifluoromethyl)oxazolidine-5-carboxamide]
Androgen receptor (hAR); EC50 [nM] (mean ± SE)
  EC50: 288 nM

## N#Cc1ccc(N2C[C@@H](C(=O)Nc3ccc(N)cc3)O[C@@H]2C(F)(F)F)cc1C(F)(F)F [Example 156, (2R,5S)-N-(4-aminophenyl)-3-(4-cyano-3-(trifluoromethyl)phenyl)-2-(trifluoromethyl)oxazolidine-5-carboxamide]
Androgen receptor (hAR); EC50 [nM] (mean ± SE)
  EC50: 323 nM

## CC(=O)NC1CCN(C(=O)[C@@H]2CN(c3ccc(C#N)c(C(F)(F)F)c3)[C@@H](C(F)(F)F)O2)CC1 [Example 176]
Androgen receptor (hAR); EC50 [nM] (mean ± SE)
  EC50: 198 nM

## N#Cc1ccc(OC[C@@H]2CN(c3ccc(C#N)c(C(F)(F)F)c3)[C@@H](C(F)(F)F)O2)c([N+](=O)[O-])c1 [Example 99, 4-((2R,5S)-5-((4-cyano-2-nitrophenoxy)methyl)-2-(trifluoromethyl)oxazolidin-3-yl)-2-(trifluoromethyl)benzonitrile]
Androgen receptor (hAR); EC50 [nM] (mean ± SE)
  EC50: 97.3 nM

## N#CCC(=O)Nc1ccc(OC[C@@H]2CN(c3ccc(C#N)c(C(F)(F)F)c3)[C@@H](C(F)(F)F)O2)cc1 [Example 95, 2-cyano-N-(4-(((2R,5S)-3-(4-cyano-3-(trifluoromethyl)phenyl)-2-(trifluoromethyl)oxazolidin-5-yl)methoxy)phenyl)acetamide]
Androgen receptor (hAR); EC50 [nM] (mean ± SE)
  EC50: 2.81 nM

## (2R,5S)-3-(3-chloro-4-nitrophenyl)-N-(4-cyano-2-fluorophenyl)-2-(trifluoromethyl)oxazolidine-5-carboxamide [Example 124]
Androgen receptor (hAR); [1]
  EC50: 3.15 nM

## O=[N+]([O-])c1ccc(N2C[C@@H](COc3ccc(/C=N/O)cc3)O[C@@H]2C(F)(F)F)cc1C(F)(F)F [Example 87, (E)-4-(((2R,5S)-3-(4-nitro-3-(trifluoromethyl)phenyl)-2-(trifluoromethyl)oxazolidin-5-yl)methoxy)benzaldehyde oxime]
Androgen receptor (hAR); [1]
  EC50: 9.22 nM

## Cc1cc(N2C[C@@H](COc3ccncc3)O[C@@H]2C(F)(F)F)ccc1[N+](=O)[O-] [Example 69, (2R,5S)-3-(3-methyl-4-nitrophenyl)-5-((pyridin-4-yloxy)methyl)-2-(trifluoromethyl)oxazolidine]
Androgen receptor (hAR); [1]
  EC50: 1.54 nM
